Results from patent US11053204B2, “Pyrimidinyloxy benzene derivatives as herbicides” (FMC Corporation, priority 2015, dated 2021).

Columns and labels:
Type in all cases: in vivo
[1] = test system: Italian ryegrass (Lolium multiflorum); experiment: Test A preemergence, visual injury rating
Summary of the method: (§1)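 Compounds in non-phytotoxic solvent with surfactant applied as soil spray preemergence, or postemergence to plants 2-10 cm at one- to two-leaf stage, in loam/sand. After approximately 10 days in greenhouse, injury rated visually versus untreated controls, 0 (no effect) to 100 (complete control).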

[2] = test system: barnyardgrass (Echinochloa crus-galli); experiment: Test A preemergence, visual injury rating
Summary of the method: as §1

[3] = test system: giant foxtail (Setaria faberii); experiment: Test A preemergence, visual injury rating
Summary of the method: as §1

[4] = test system: kochia (Kochia scoparia); experiment: Test A preemergence, visual injury rating
Summary of the method: as §1

[5] = test system: pigweed (Amaranthus retroflexus); experiment: Test A preemergence, visual injury rating
Summary of the method: as §1

[6] = test system: ragweed (common ragweed, Ambrosia elatior); experiment: Test A preemergence, visual injury rating
Summary of the method: as §1

[7] = test system: Italian ryegrass (Lolium multiflorum); experiment: Test A postemergence, visual injury rating; settings: 0 to 100 scale, 0 is no effect, 100 is complete control, approximately 10 days
Summary of the method: as §1

[8] = test system: barnyardgrass (Echinochloa crus-galli); experiment: Test A postemergence, visual injury rating; settings: 0 is no effect, 100 is complete control
Summary of the method: as §1

[9] = test system: blackgrass (Alopecurus myosuroides); experiment: Test A postemergence, visual injury rating; settings: 0 is no effect, 100 is complete control
Summary of the method: as §1

[10] = test system: corn (Zea mays); experiment: Test A postemergence, visual injury rating; settings: 0 is no effect, 100 is complete control
Summary of the method: as §1

[11] = test system: galium (catchweed bedstraw, Galium aparine); experiment: Test A postemergence, visual injury rating; settings: 0 is no effect, 100 is complete control
Summary of the method: as §1

[12] = test system: giant foxtail (Setaria faberii); experiment: Test A postemergence, visual injury rating; settings: 0 is no effect, 100 is complete control
Summary of the method: as §1

[13] = test system: kochia (Kochia scoparia); experiment: Test A postemergence, visual injury rating; settings: 0 to 100 scale, 0 is no effect, 100 is complete control, approximately 10 days
Summary of the method: as §1

[14] = test system: pigweed (Amaranthus retroflexus); experiment: Test A postemergence, visual injury rating; settings: 0 to 100 scale, 0 is no effect, 100 is complete control, approximately 10 days
Summary of the method: as §1

[15] = test system: ragweed (common ragweed, Ambrosia elatior); experiment: Test A postemergence, visual injury rating; settings: 0 to 100 scale, 0 is no effect, 100 is complete control, approximately 10 days
Summary of the method: as §1

[16] = test system: wheat (Triticum aestivum); experiment: Test A postemergence, visual injury rating; settings: 0 to 100 scale, 0 is no effect, 100 is complete control, approximately 10 days
Summary of the method: as §1

[17] = test system: barnyardgrass (Echinochloa crus-galli); experiment: Test B flooded paddy test, plant response rating; settings: 250 g ai/ha; Flood; scale of 0 to 100 where 0 is no effect and 100 is complete control; 13 to 15 days
Summary of the method: (§2)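 Visual injury ratings against untreated controls, taken 13 to 15 days after compound was added to paddy water standing 3 cm above the soil.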

[18] = test system: ducksalad (Heteranthera limosa); experiment: Test B flooded paddy test, plant response rating; settings: 250 g ai/ha; Flood; scale of 0 to 100 where 0 is no effect and 100 is complete control; 13 to 15 days
Summary of the method: as §2

[19] = test system: rice (Oryza sativa); experiment: Test B flooded paddy test, plant response rating; settings: 250 g ai/ha; Flood; scale of 0 to 100 where 0 is no effect and 100 is complete control; 13 to 15 days
Summary of the method: as §2

[20] = test system: sedge, umbrella (small-flower umbrella sedge, Cyperus difformis); experiment: Test B flooded paddy test, plant response rating; settings: 250 g ai/ha; Flood; scale of 0 to 100 where 0 is no effect and 100 is complete control; 13 to 15 days
Summary of the method: as §2

[21] = test system: ragweed (common ragweed, Ambrosia elatior); experiment: Test C preemergence, plant response rating; settings: Preemergence
Summary of the method: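 Pre-emergence: seeds sown in loam soil–sand blend or silt loam and sprayed with test chemicals in a non-phytotoxic solvent mixture with surfactant. Post-emergence: plants 2 to 18 cm (1- to 4-leaf stage) in peat-based potting medium, same formulation. Greenhouse 13 to 15 d; visual rating 0 (no effect) to 100 (complete control) versus controls.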

[22] = 31 g ai/ha, 0 to 100 scale, 0 no effect, 100 complete control
[23] = 125 g ai/ha, 0 to 100 scale (0 no effect, 100 complete control)
[24] = 31 g ai/ha, 0 to 100 scale, approximately 10 days

O=C(CCCCC(F)(F)F)c1c(Br)cccc1Oc1ncc(Cl)cn1 [Compound 82]
0: Plant response rating, Ryegrass, Italian [1, 22] | Plant response rating, Ragweed [6, 22] | Plant response rating, Ragweed ([21]; 31 g ai/ha, scale 0 to 100)
40: Ryegrass, Italian plant response rating ([7]; 31 g ai/ha) | Blackgrass plant response rating [9, 24] | Blackgrass plant response rating (0 to 100 scale) ([9]; 125 g ai/ha) | Ragweed plant response rating ([15]; 31 g ai/ha) | Ragweed plant response rating ([15]; 125 g ai/ha)
60: Ragweed plant response rating [6, 23] | Ryegrass, Italian plant response rating ([7]; 125 g ai/ha)
80: Ryegrass, Italian plant response rating [1, 23] | Kochia plant response rating [4, 23] | Kochia plant response rating ([13]; 31 g ai/ha)
90: Plant response rating, Foxtail, Giant [3, 22] | Plant response rating, Pigweed [5, 22] | Galium plant response rating [11, 24]
30: Barnyardgrass plant response rating [8, 24] | Corn plant response rating (0 to 100 scale) ([10]; 125 g ai/ha) | Foxtail, Giant plant response rating [12, 24] | Wheat plant response rating ([16]; 125 g ai/ha) | Plant response rating, Rice [19] | Plant response rating, Ragweed ([21]; 125 g ai/ha, scale of 0 to 100)
95: Plant response rating, Sedge, Umbrella [20]
20: Corn plant response rating [10, 24] | Plant response rating, Ragweed ([21]; 62 g ai/ha, scale 0 to 100)
100: Barnyardgrass plant response rating [2, 23] | Foxtail, Giant plant response rating [3, 23] | Pigweed plant response rating [5, 23] | Barnyardgrass plant response rating (0 to 100 scale) ([8]; 125 g ai/ha) | Galium plant response rating (0 to 100 scale) ([11]; 125 g ai/ha) | Foxtail, Giant plant response rating (0 to 100 scale) ([12]; 125 g ai/ha) | Kochia plant response rating ([13]; 125 g ai/ha) | Pigweed plant response rating ([14]; 31 g ai/ha) | Pigweed plant response rating ([14]; 125 g ai/ha) | Plant response rating, Ducksalad [18]
70: Plant response rating, Kochia [4, 22]
35: Plant response rating, Barnyardgrass [17]
50: Plant response rating, Barnyardgrass [2, 22]
10: Wheat plant response rating ([16]; 31 g ai/ha)
